Literature values, collected in patent publication US20130085461A1, “Method for Pre-Debriding Treatment of Non-Viable Skin Tissue and Compositions and System Thereof” (BIOMEDICAL CONCEPTS LLC, priority 2011, published 2013).
Where two headings read alike, the source gives them in different places.

Biological target: T1, rat tail Type I collagen (Rattus norvegicus, UniProt P02454+P02466)
T1 construct: host or cells: rat tail (tissue), as reported in the cited work
Conditions: non-viable rat tail Type I collagen

T1 sequence (P02454 152-1207 limits assumed): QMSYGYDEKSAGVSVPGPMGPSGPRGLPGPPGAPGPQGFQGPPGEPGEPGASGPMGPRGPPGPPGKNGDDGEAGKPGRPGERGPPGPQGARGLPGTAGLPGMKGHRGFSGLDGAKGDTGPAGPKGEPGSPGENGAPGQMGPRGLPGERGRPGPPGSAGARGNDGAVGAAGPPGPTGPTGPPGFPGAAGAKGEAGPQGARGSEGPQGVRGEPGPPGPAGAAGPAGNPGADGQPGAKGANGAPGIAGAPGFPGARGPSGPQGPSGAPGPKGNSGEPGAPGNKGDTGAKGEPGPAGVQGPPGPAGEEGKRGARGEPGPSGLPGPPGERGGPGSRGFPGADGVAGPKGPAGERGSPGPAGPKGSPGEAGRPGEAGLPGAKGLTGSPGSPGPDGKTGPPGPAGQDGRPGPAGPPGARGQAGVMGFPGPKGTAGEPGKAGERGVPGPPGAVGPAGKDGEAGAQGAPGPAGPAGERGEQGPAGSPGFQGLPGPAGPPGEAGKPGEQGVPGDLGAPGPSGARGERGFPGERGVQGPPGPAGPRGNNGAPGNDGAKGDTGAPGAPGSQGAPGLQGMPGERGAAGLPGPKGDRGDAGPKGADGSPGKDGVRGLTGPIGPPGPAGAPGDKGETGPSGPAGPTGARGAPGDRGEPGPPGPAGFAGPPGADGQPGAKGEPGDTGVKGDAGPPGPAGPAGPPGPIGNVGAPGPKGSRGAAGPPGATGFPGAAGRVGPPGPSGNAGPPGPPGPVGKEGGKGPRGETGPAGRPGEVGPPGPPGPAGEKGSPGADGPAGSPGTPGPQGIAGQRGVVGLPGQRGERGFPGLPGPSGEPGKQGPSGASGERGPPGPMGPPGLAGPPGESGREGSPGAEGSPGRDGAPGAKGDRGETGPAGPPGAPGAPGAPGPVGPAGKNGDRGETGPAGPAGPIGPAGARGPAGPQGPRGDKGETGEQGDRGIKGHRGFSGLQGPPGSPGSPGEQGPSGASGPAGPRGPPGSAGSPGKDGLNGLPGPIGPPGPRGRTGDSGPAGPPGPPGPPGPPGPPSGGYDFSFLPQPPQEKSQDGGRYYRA
T1 sequence (P02466 86-1125 limits assumed): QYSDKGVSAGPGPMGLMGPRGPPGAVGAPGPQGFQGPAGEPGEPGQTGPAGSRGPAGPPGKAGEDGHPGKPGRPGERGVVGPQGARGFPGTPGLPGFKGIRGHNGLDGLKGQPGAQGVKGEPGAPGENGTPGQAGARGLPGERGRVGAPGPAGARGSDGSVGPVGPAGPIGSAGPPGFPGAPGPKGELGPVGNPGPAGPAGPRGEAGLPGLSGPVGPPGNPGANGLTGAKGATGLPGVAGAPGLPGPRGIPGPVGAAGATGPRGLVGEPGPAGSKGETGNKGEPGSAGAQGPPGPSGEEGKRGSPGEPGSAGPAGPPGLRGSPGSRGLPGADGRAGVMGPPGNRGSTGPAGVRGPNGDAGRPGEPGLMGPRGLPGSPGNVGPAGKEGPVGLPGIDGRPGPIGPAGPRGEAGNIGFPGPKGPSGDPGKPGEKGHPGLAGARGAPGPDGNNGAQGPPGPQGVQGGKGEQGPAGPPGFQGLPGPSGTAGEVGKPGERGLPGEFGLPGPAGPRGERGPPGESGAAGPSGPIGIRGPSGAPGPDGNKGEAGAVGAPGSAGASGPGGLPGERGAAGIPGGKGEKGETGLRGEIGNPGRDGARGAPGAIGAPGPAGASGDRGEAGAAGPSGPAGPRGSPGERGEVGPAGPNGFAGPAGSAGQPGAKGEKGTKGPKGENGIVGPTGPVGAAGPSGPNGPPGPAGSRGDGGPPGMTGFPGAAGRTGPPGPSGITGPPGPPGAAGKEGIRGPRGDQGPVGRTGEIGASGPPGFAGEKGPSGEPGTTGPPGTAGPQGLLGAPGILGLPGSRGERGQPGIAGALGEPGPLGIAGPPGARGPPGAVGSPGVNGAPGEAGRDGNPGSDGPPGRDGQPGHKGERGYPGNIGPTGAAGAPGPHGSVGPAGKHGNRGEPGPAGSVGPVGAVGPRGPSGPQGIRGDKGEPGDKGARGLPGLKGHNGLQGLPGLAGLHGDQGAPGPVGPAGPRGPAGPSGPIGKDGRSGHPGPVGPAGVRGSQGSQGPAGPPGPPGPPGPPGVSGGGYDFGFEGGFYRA

| Structure (SMILES) | reduction of denaturation temperature (Tm=67.5° C.) (10 mole %) | reduction of denaturation temperature (Tm=67.5° C.) (3M) |
| --- | --- | --- |
| CCCO [n-propanol] | 3.5 °C |  |
| NC(N)=O [urea] |  | 13.5 °C |
